Laboratory results taken from patent US20040037780A1, “Respiratory delivery for gene therapy and lentiviral delivery particle” (priority 2001, published 2004).

Columns and labels:
A549 = test: Effect of detergent on viral gene transfer in vitro, non-polarised cells; format: cell-based; conditions: AdV5CMVLacZ vector added 10, 30 and 60 mins following polidocanol treatment
Description: (§1) The effect of detergents (polidocanol and lysophospatidylcholine) on the level of viral gene transfer were firstly evaluated in vitro.
(§2) Initial experiments made use of the AdV5CMVLacZ vector (a generous gift from Dr. R. C. Boucher). […] This dose of polidocanol was assessed on polarised cells (MDCK) and also non-polarised cells (A549). The AdV vector was added at 10, 30 and 60 mins following treatment. […] When the experiments were repeated using the LV vector we found the same effect.

MDCK = test: Effect of detergent on viral gene transfer in vitro, polarised cells; format: cell-based; conditions: AdV5CMVLacZ vector added 10, 30 and 60 mins following polidocanol treatment, P<0.05
Description: as §1, §2

nasal airway epithelium [1] = test: LV-mediated LacZ gene transfer into mouse nasal airway (X-gal, count of LacZ positive cells); format: in vivo, C57B1/6 mice; conditions: for LacZ positive cells ± SEM: 3 standard cross-sections, n=3
[2] = system: nasal airway surface epithelium; test: Transepithelial potential difference (TPD) after penetrating agent, damage of epithelia; format: in vivo, mice; conditions: for recovery of TDP function: longer time course, FIG. 11
Text: The method of choice for assessing an appropriate level of damage is by the measurement of transepithelial potential difference (TDP) (Middleton et al., 1994; Knowles et al., 1995; Lee et al., 1999). In general, damage to epithelium with penetrating agents cause at least opening of the tight junctions and this causes the resident negative TPD on the airway surface to go toward zero. If there is exfoliation (that is substantial damage) then the TPD goes to zero quickly and takes several days to return to normal because the epithelia cells have been stripped off and have to regenerate.
Measurement of TPD was performed under zero-chloride perfusion to give a larger baseline TPD value from which to measure change. Under these conditions the values are typically around −20 mV compared to about −5 mV if normal perfusion saline is used. Mice are anaesthetised, TPD cannula is inserted, then the detergent dose is instilled in the same nostril, the effect is then followed in this anterior part of the nose. The methods used for measuring TDP are largely as described in Parsons et al., 1998. For method for use in human see Middleton et al., 1994 and Knowles et al., 1995.
The dosage of detergent used is 4 μl of PBS, PDOC of LPC and is in line with methods used in the above examples. The solutions of detergent use are 0.01, 0.1 and 1.0%. The TDP value was determined 5 minutes after administration of the detergent. The values are presented graphically in FIG. 8. […] A score of 100% represents the pretest TDP value. […] A TDP value of less than about 60% is though to be preferable.
The same doses of LPC were used as for experiment 1 but TDP was measured at 2, 5 and 10 minutes after administration. The data are presented graphically in FIG. 9. […] Thus should 0.01% LPC be used for treatment of the lung then lentivirus should be delivered within 10 minutes.
This uses that same doses of PDOC as in experiment 1 and as in experiment 2 TDP was measured at 2, 5 and 10 minutes after administration. The data from this experiment are presented graphically in FIG. 10.
TDP was measured over a longer time course using PDOC as the penetrating agent. The doses used in this experiment were (per mouse) 10 μl of 1.0% PDOC, 4 μl of 1.0% PDOC and 4 μl of 0.1% PDOC. […] A recovery of TDP function within about 1 day is considered to be transient.

nasal airway epithelium [3] = test: Adenoviral (AdlLacZ) LacZ gene transfer into mouse nasal airway after detergent pre-treatment; format: in vivo, mice; conditions: 4 μl detergent (SDS 0.25%, ZWIT 0.14%, DEOXY 0.17%) 1 h before AdlLacZ 1×10^9 pfu; 3 days; FIG. 7
Description: The detergents tested were Sodium n-dodecyl sulfate (SDS), (an anionic detergent) at 0.25%, Zwittergent 3-14: N-Tetradecylsulfobetaine (ZWIT) (a zwitterionic detergent) at 0.14%, Cetyltrimethylammonium bromide (CTAB) (an ionic detergent) at 0.15%, Deoxycholic Acid (DEOXY) (an ionic detergent) at 0.17%, with phosphate buffered saline as a control.
Detergents were made up fresh to nominated concentrations. A single 4 μl dose was used per mouse (all were approximately 20 gm body weight). An Adenoviral vector (AdlLacZ) dose of 1×10^9 pfu in 20 μl. Mice were anaesthetised with Xylamine/Ketamine i.m.; then suspended vertically (hanging on dorsal incisor teeth). The detergent dose was instilled into the nostril opening in one bolus via a micropipettor.
The mouse was set aside for one hour; re-anaesthetised as needed, 1 hour later 20 μl of viral vector was instilled into the same nostril. The mouse was allowed to recover and returned to caging. Three days later the mice were killed with CO2 excess, head removed and the nasal airways were flushed with fixative. These were taken through standard “X-gal” processing to reveal blue stained cells that represent LacZ gene transfer. Cells were processing to wax sections and stained with Safranin-O or haemotoxylin/oesin. Stained cells present along the perimeter of 3 standard cross-sections in the treated nasal airway were counted. […]

[4] = system: CFTR-mediated chloride secretion; test: Nasal TPD/ΔPD measurement of CFTR function after LVCFTR dosing; format: in vivo; conditions: homozygote cftr^tmlUnc mice, 1% LPC 1 h prior to PBS (control) instillation; 7 days later
Description: C57B1/6 and cftr^tmlUnc mice (Snouwaert et al., 1992) were used under the approval of both the Women's and Children's Hospital and the University of Adelaide Animal Ethics Committees. C57B1/6 mice (6-7 weeks of age), or cftr^tmlUnc mice (8-20 weeks of age) were anaesthetised intramuscularly with 1 μl/g and 0.7 μl/g body weight respectively of a 3:2 mixture of xylazil (20 mg/ml):ketamine (100 mg/ml) respectively. Body temperature was maintained during anaesthesia with a heat pad, or heat lamp and during the recovery period the mice were placed in a 35° C. air chamber. For dosing, mice were suspended from their dorsal incisors (hindquarters supported) and pre-treatment solutions (4 μl of LPC (Sigma L-4129), or polidocanol (Sigma P-9641), prepared as w/v solutions in PBS) delivered as a bolus into the right nostril using a gel-loading tip (Finnpippette). […] The mice were monitored for respiratory distress and any loss of treatment solution was noted. […]
CFTR gene expression: Mice were anaesthetised, suspended from their dorsal incisors (hindquarters supported) and a subcutaneous needle-agar bridge (as reference electrode) was placed in the abdomen. […] TPD values were measured (blinded) from chart paper recordings, and the ΔPD value was calculated by subtracting the TPD value recorded under basal conditions from the TPD value measured under low-chloride conditions. […]

[5] = system: freshly-excised mouse nasal airway epithelium; conditions: unpublished data
nasal airway epithelium [6] = test: Histological injury after dosing with LPC alone; format: in vivo, mouse; conditions: 1% LPC alone
[7] = 0.1% pre-treatment (4 μl) 1 h before 20 μl LVLacZa (6×10^4 NIH3T3-TU), 7 days
[8] = 1% pre-treatment (4 μl), then PBS instead of vector, 7 days

## polyoxyethylene 9-lauryl ether [PDOC]
A549
  level of gene transfer between vector instillation times: no apparent difference
MDCK
  gene transfer when vector added one hour after treatment compared to shorter time points: significantly improved
Nasal airway epithelium [1]; [7]
  LacZ positive cells ± SEM: 2.7 ± 0.3
Nasal airway epithelium [1]; 1% pre-treatment (4 μl) 1 h before 20 μl LVLacZa (6×10^4 NIH3T3-TU), polybrene-free, 7 days
  LacZ positive cells ± SEM: 5.3 ± 1.3
Nasal airway epithelium [1]; [8]
  LacZ positive cells ± SEM: 0.0 ± 0.0
[2]; 4 μl of 0.01, 0.1 and 1.0% solutions, 5 minutes after administration, FIG. 8
  effect on TDP value: greater effect on TDP value than LPC
[2]; 4 μl of 0.1% PDOC
  recovery of TDP function: rapidly recovers
[2]; 10 μl of 1.0% PDOC and 4 μl of 1.0% PDOC (first two doses)
  recovery of TDP function: extended

## polybrene
Nasal airway epithelium [1]; 1% LPC pre-treatment, LVLacZa vector preparation containing 4 μg/ml polybrene, 7 days
  number of LacZ positive cells: 5.0±1.0
Nasal airway epithelium [1]; 1% LPC pre-treatment, vs polybrene-free LVLacZa, P=0.002
  decrease in the number of LacZ positive cells on inclusion of polybrene in the LVLacZa preparation: 4 fold

## CCCCCCCCCCCCCC[N+](C)(C)CCCS(=O)(=O)[O-] [Zwit, N-Tetradecylsulfobetaine]
Nasal airway epithelium [3]
  numbers of transductants over the control PBS, respiratory cells: considerable increase in numbers of transductants

## CCCCCCCCCCCCOS(=O)(=O)[O-].[Na+] [SDS, Sodium n-dodecyl sulfate]
Nasal airway epithelium [3]
  numbers of transductants over the control PBS, respiratory cells: considerable increase in numbers of transductants

## lysophosphatidylcholine [LPC]
[4]
  ΔPD: +8±3.2 mV
Nasal airway epithelium [1]; [7]
  LacZ positive cells ± SEM: 4.3 ± 0.7
Nasal airway epithelium [1]; 1% LPC pre-treatment, LVLacZa, 7 days
  increase in the level of LV-mediated transduction compared to pre-treatment with 1% polidocanol: 4 fold
Nasal airway epithelium [1]; [8]
  LacZ positive cells ± SEM: 0.0 ± 0.0
[5]
  effect on cilial beat: dose-dependant reversibility of reduction in cilial beat
Nasal airway epithelium [6]
  histological injury observed immediately after dosing: limited areas of deciliation or exfoliation found anteriorly close the dosed site
[2]; 4 μl of 0.01% LPC, after 10 minutes, FIG. 9
  TPD relative to pretest TPD: not significantly different to pretest TPD
